Results taken from patent US10172905B1, “Treatment of protein degradation disorders” (President and Fellows of Harvard College, priority 2005, dated 2019).
Entries after “also recorded” stand apart in the source; their conditions may differ.

Key:
MM.1S cells [1] = test: Cell cycle profile by flow cytometry (PI staining); assay type: cell-based, human; details: 24 h
Procedure: […] Cells were then stained with propidium iodine (PI, Sigma) (5 μg/ml) and cell cycle profile was determined using program M software on an Epics flow cytometer (Coulter Immunology, Hialeah, Fla.) (44).

[2] = molecular target: T1, interaction of HDAC6 with dynein (Homo sapiens, UniProt Q9UBN7); test: Co-immunoprecipitation of HDAC6 with dynein or ubiquitinated proteins; assay type: cell-based; details: tubacin 2.5 and 5 μM, 8 h, MM.1S cells
T1 sequence (Q9UBN7 1-1215): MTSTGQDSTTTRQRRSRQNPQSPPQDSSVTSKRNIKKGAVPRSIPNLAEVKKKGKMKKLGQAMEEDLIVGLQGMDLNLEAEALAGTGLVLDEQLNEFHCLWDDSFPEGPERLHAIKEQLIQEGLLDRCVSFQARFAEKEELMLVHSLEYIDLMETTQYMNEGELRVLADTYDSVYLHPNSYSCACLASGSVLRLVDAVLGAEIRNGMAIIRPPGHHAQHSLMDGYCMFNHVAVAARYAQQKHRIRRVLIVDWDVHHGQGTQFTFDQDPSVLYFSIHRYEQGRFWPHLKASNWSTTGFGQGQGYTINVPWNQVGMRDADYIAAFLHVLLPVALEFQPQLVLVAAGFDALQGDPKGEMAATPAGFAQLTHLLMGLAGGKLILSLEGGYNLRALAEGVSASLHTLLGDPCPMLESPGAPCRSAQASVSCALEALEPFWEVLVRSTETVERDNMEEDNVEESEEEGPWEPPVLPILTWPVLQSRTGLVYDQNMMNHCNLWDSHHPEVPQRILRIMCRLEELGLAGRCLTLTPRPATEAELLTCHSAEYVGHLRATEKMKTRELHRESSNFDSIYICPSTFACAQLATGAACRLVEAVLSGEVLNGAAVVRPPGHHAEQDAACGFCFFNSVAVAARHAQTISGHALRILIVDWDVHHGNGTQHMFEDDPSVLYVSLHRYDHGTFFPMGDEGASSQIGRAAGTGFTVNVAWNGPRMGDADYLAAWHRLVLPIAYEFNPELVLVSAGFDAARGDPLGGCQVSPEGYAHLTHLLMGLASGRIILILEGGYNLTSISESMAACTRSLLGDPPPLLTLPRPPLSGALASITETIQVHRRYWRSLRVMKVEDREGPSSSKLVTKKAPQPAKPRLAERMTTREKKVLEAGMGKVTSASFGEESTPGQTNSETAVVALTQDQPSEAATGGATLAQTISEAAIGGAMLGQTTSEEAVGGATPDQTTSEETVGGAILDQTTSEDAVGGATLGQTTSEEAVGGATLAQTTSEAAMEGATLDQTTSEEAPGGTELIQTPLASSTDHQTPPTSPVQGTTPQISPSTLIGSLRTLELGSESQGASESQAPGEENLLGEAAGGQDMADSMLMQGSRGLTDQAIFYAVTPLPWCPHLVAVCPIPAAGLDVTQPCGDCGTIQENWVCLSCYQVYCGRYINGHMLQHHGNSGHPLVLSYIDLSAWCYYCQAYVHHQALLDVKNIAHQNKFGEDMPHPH
Procedure: (§1) Cells cultured with tubacin and/or bortezomib were harvested; washed, and lysed using lysis buffer: 50 mM Tris-HCl (pH 7.4), 150 mM NaCl, 1% NP-40, 5 mM EDTA, 5 mM NaF, 1 mM Na3VO4, 1 mM PMSF, 5 μg/ml leupeptine, and 5 μg/ml aprotinin. Whole cell lysates were subjected to SDS-PAGE, transferred to nitrocellulose membrane (Bio-Rad Laboratories, Hercules, Calif.), and immunoblotted with specific Abs (31). Western blotting was done using anti-HDAC6, acetylated lysine, acetylated histone H3, acetylated histone H4, ubiquitin (Ub), phospho-SAPK (JNK), caspase-8 caspase-9, caspase-3, and PARP Abs (Cell Signaling, Beverly, Mass.); with anti-α-tubulin Ab (Santa Cruz Biotechnology, Santa Cruz, Calif.); as well as with anti-dynein Ab (Sigma, Saint Louis, Mo.). For immunoprecipitation, whole cell lysates were incubated with anti-Ub or dynein Abs overnight at 4° C., and then incubated with protein A/G PLUS-Agarose (Santa Cruz Biotechnology) for 2 h at 4° C., as in our prior study (31). Immunoprecipitates were then subjected to Western blotting for detection of HDAC6 and dynein.

[3] = test system: polyubiquitinated proteins; test: Western blotting with anti-Ub Ab; assay type: cell-based, human; details: tubacin alone
Procedure: as §1

[4] = test system: JNK phosphorylation and caspase/PARP cleavage; test: Western blotting for p21Cip1, p-JNK, caspases and PARP; assay type: cell-based, human
Procedure: MM cells were cultured with Velcade and/or Tubacin; harvested; washed; and lysed using lysis buffer: 50 mM Tris-HCl (pH 7.4), 150 mM NaCl, 1% NP-40, 5 mM EDTA, 5 mM NaF, 2 mM Na3VO4, 1 mM PMSF, 5 μg/ml leupeptine, and 5 μg/ml aprotinin. Cell lysates were subjected to SDS-PAGE, transferred to PVDF membrane (Bio-Rad Laboratories, Hercules, Calif.), and immunoblotted with Abs against specific proteins.
as §1

MM.1S and RPMI cells = test: Synergy with Velcade/Bortezomib in myeloma cell lines; assay type: cell-based
MM.1S cells [5] = test: [3H]-thymidine uptake with or without IL-6; assay type: cell-based, human; details: tubacin 1.25-5 μM, IL-6 5-20 ng/ml, 48 h
Procedure: Proliferation was measured by ^3H-thymidine uptake. Briefly, MM cells (3×10^4 cells/well) were incubated in 96-well culture plates in the presence of media, Velcade and/or Tubacin for 48 h at 37° C. DNA synthesis was measured by [^3H]-thymidine ([^3H]-TdR, Perkin Elmer, Boston, Mass.) uptake. Cells were pulsed with [^3H]TdR (0.5 μCi/well) during the last 8 h of 48 h cultures. All experiments were performed in triplicate.

[6] = test system: rat astrocytes and striatal neurons; test: Russell body formation in rat astrocytes and striatal neurons; assay type: cell-based; details: previous experiments, comparable concentrations
[7] = test system: MM.1S cells and RPMI cells; test: Inhibition of protein catabolism in myeloma cells; assay type: cell-based; details: FIG. 18

O=C(CCCCCCC(=O)Nc1ccc([C@H]2O[C@@H](CSc3nc(-c4ccccc4)c(-c4ccccc4)o3)C[C@@H](c3ccc(CO)cc3)O2)cc1)NO [tubacin]
G2/M arrest triggered by Velcade (MM.1S cells [1]; Velcade 5 nM with tubacin 5 μM): significantly inhibits G2/M arrest | cell cycle profile (MM.1S cells [1]; tubacin 5 μM alone): does not alter cell cycle profile | co-immunoprecipitation between HDAC6 and ubiquitinated proteins [2]: unaffected | co-immunoprecipitation of HDAC6 with dynein [2]: markedly inhibited in a dose-dependent fashion; also recorded: inhibits binding of HDAC6 with dynein | polyubiquitinated proteins ([3]; MM.1S cells): no significant change | polyubiquitinated proteins ([3]; RPMI8226 cells): significantly accumulate; also recorded: increase in cellular ubiquitinated proteins | phosphorylation of JNK and caspase/PARP cleavage ([4]; MM.1S cells, tubacin 5 μM and/or bortezomib 5 nM, 24 h): does not trigger phosphorylation of JNK or caspase/PRAP cleavage | induction of p21Cip1 induced by bortezomib ([4]; tubacin 5 μM + bortezomib 5 nM, MM.1S, 24 h): inhibits induction of p21^Cip1 induced by bortezomib | induction of p21Cip1 ([4]; tubacin 5 μM alone, MM.1S, 24 h): does not trigger induction of p21^Cip1 | caspase-8/PARP cleavage ([4]; tubacin 10 μM, 0-24 h, MM.1S and RPMI8226 cells): time-dependent caspase-8/PARP cleavage is induced; also recorded: induces cytotoxicity via activation of caspases | synergy with Velcade (MM.1S and RPMI cells; MM.1S and RPMI cells): synergy | toxicity and synergy with Bortezomib (MM.1S and RPMI cells; MM.1S cells): toxicity and synergy | toxicity and synergy with Bortezomib (MM.1S and RPMI cells; RPMI-8226 cells): toxicity and synergy | growth inhibitory / cytotoxic effect of tubacin in the presence of IL-6 (MM.1S cells [5]): maintained; also recorded: did not overcome | Russell body formation [6]: features suggestive of Russell body formation | inhibition of protein catabolism [7]: potent inhibitors of protein catabolism
